Legend:
[1] = candidate solvents for polyurethane and biocide; cited from earlier work
[2] = system: latex-allergic or sensitive users; experiment: Gentian violet admixed with liquid latex: allergic reactions in users; details: gentian violet admixed with liquid latex prior to membrane formation; 1.5% by weight solution preferred
Text: According to one aspect of the invention, gentian violet is admixed with liquid latex prior to membrane formation by dipping or spraying techniques. A wide variety of different concentrations may be used, but a 1.5% by weight solution of gentian violet is preferred. […] Other proteing binding biocides may be employed in place of or in combination with gentian violet.

Q: For CCC(C)=O [Methyl ethyl ketone], which “Hydrogen Bonding” value [1] is on record?
A: medium

Q: With CCOCCO [Ethylene glycol monoethyl ether] as the molecule, how does the “Hydrogen Bonding” value [1] read?
A: medium

Q: Which “Hydrogen Bonding” value [1] does the source give for Cc1cccc(O)c1 [m-Cresol] here?
A: strong

Q: For C[S+](C)[O-] [Dimethyl sulfoxide (DMS), Dimethyl sulfoxide], which “Hydrogen Bonding” value [1] is on record?
A: medium

Q: Which “Hydrogen Bonding” value [1] does the source give for C1CCOC1 [Tetrahydrofuran (THF), Tetrahydrofuran] here?
A: medium

Q: Which “Hydrogen Bonding” value [1] does the source give for CC(=O)N(C)C [Dimethyl acetamide (DMF), Dimethyl acetamide] here?
A: medium

Q: With CCC(=O)CC [Diethyl ketone] as the molecule, how does the “Hydrogen Bonding” value [1] read?
A: medium

Q: For CN(C)c1ccc(C(=C2C=CC(=[N+](C)C)C=C2)c2ccc(N(C)C)cc2)cc1 [gentian violet], which “allergic reactions in latex-allergic or sensitive users” value [2] is on record?
A: minimize allergic reactions

From US20010018095A1, “Method of forming a membrant, especially a latex or polymer membrane, including multiple discrete layers” (priority 1987, published 2001)
